We go through 8 molecules from ChEMBL document CHEMBL1201862, “PubChem BioAssay data set” (2004).

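Five compound concentrations were applied to cells in 96-well plates for 48 hours; endpoints were derived by simple linear interpolation of the resulting dose-response curve. At the GI50, growth is halved.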 Calls of active or inactive are those of the source. Rule as the data show it: active = GI50 up to about 1.1 µM and inactive = higher.

Test systems include COLO 205; HL-60; HOP-62; HT-29; K562; KM12; M14; MOLT-4; NCI-H460; OVCAR-3; RPMI-8226; RXF 393; UACC-257; UACC-62; UO-31; HCC 2998; NCI-H522; SK-MEL-28; SK-OV-3; SW-620.
What all share (test): NCI anticancer screen, dose series, 48 h

For the molecule `CCOC(=O)c1c(N=C(S)Nc2ccccc2)sc2c1CCN(C)C2`, the GI50 in the test with COLO 205, in the test on HL-60, in the test with HOP-62, in the test on HT-29, with K562 and in the test with KM12 was > 100 µM (inactive) each time. Moreover, the GI50 in the test on M14, in the test on MOLT-4, in the test with NCI-H460, in the test with OVCAR-3, in the test with RPMI-8226 and in the test on RXF 393 was > 100 µM (inactive) each time. Also, the GI50 in the test with UACC-257, with UACC-62 and in the test with UO-31 was > 100 µM (inactive) in each case.

With `N#C/C(=C1/Sc2c(nc[nH]c2=O)N1c1ccccc1)c1nc2ccccc2[nH]1`, the GI50 in the test with COLO 205, in the test on HCC 2998, in the test on HL-60, in the test with HOP-62, with HT-29 and in the test on K562 was > 100 µM (inactive) throughout. In addition, the GI50 in the test with KM12, in the test with M14, with MOLT-4, in the test on NCI-H460, in the test on NCI-H522 and in the test on OVCAR-3 was > 100 µM (inactive) in each case. The GI50 in the test on RPMI-8226, in the test on SK-MEL-28, in the test on SK-OV-3, in the test on SW-620, in the test on UACC-257 and in the test on UACC-62 was > 100 µM (inactive) in each case. In the test with UO-31, the GI50 was > 100 µM (inactive).

Regarding `COC(=O)C1=C(\c2ccccc2)c2ccccc2C(=O)N(C2CCCCC2)/C=C\1`, the GI50 in the test with COLO 205 was 14.5 µM (inactive); in the test with HCC 2998, 10.7 µM (inactive); with HL-60, 21.3 µM (inactive); in the test on HOP-62 it was 21.3 µM (inactive); with HT-29, 21.9 µM (inactive); in the test with K562 it was 4.59 µM (inactive). For the same molecule, the GI50 was 13.9 µM (inactive) with KM12; 28.6 µM (inactive) with M14; > 100 µM (inactive) in the test with MOLT-4; 16.1 µM (inactive) in the test on NCI-H460; 36.4 µM (inactive) with NCI-H522; 21.7 µM (inactive) in the test with OVCAR-3. The GI50 with SK-MEL-28 was 17.9 µM (inactive); in the test with SK-OV-3, 74.1 µM (inactive); in the test with SW-620 it was 28.6 µM (inactive); with UACC-257, 12.5 µM (inactive); in the test on UO-31, 22.6 µM (inactive).

Consider `CC1CC/C(=C\c2ccc(Cl)cc2)C(=O)/C1=C\c1ccc(Cl)cc1` (stereo unspecified), for which the GI50 in the test on COLO 205 is 32.1 µM (inactive); in the test with HOP-62, 25.6 µM (inactive); in the test with HT-29, 30.9 µM (inactive); in the test on K562, 41 µM (inactive); with KM12, 18.7 µM (inactive); in the test on M14 it was 24 µM (inactive). Also, the GI50 with RXF 393 was 33.9 µM (inactive); in the test with SK-MEL-28, 53.1 µM (inactive); in the test with SK-OV-3, > 100 µM (inactive); with SW-620 it was 41.3 µM (inactive); in the test on UACC-257, 42.7 µM (inactive); in the test with UACC-62, 25.4 µM (inactive). In the test with UO-31, the GI50 was 36.4 µM (inactive).

On to `CN(C)CCC(O)(c1ccccc1)C(O)(CCN(C)C)c1ccccc1` (stereo unspecified), for which the GI50 was 72.9 µM (inactive) in the test with COLO 205; > 100 µM (inactive) in the test with HCC 2998; > 100 µM (inactive) in the test on HOP-62; 94 µM (inactive) with HT-29; 48.9 µM (inactive) in the test on K562; > 100 µM (inactive) in the test with KM12. For the same molecule, the GI50 is 17.4 µM (inactive) with M14; > 100 µM (inactive) in the test on MOLT-4; > 100 µM (inactive) with NCI-H460; > 100 µM (inactive) in the test on NCI-H522; > 100 µM (inactive) in the test on OVCAR-3; > 100 µM (inactive) with RPMI-8226. Moreover, the GI50 with SK-MEL-28 was > 100 µM (inactive); with SK-OV-3, > 100 µM (inactive); with SW-620, > 100 µM (inactive); with UACC-257, 22.3 µM (inactive); in the test with UACC-62, > 100 µM (inactive); with UO-31 it was > 100 µM (inactive).

Consider `COc1ccc(-c2c3c(nc4nc(SCCc5ccccc5)nc(N)c24)CCCC3)cc1OC`, for which the GI50 is > 100 µM (inactive) in the test on COLO 205; > 100 µM (inactive) in the test on HL-60; 90.8 µM (inactive) in the test on HOP-62; > 100 µM (inactive) with HT-29; > 100 µM (inactive) with K562; > 100 µM (inactive) in the test with KM12. The GI50 in the test on M14 is > 100 µM (inactive); with MOLT-4 it was > 100 µM (inactive); in the test on NCI-H460, > 100 µM (inactive); with OVCAR-3, > 100 µM (inactive); in the test with RPMI-8226 it was > 100 µM (inactive); in the test on RXF 393 it was 24.9 µM (inactive). The GI50 with SK-MEL-28, in the test with SK-OV-3, in the test with SW-620, in the test on UACC-257, in the test with UACC-62 and with UO-31 was > 100 µM (inactive) throughout.

Turning to `CC[C@]12C=CCN3CC[C@@]4(c5cc(Br)c(OC)c([N+](=O)[O-])c5N(C)[C@H]4[C@@](O)(C(=O)OC)[C@@H]1OC(C)=O)[C@@H]32`, the GI50 in the test with COLO 205 was 27.8 µM (inactive); with HL-60, 33.7 µM (inactive); with HOP-62 it was 87.5 µM (inactive); in the test with HT-29, > 100 µM (inactive); in the test with K562, 0.443 µM (active); in the test with KM12, 47.6 µM (inactive). Besides, the GI50 with M14 was 55.7 µM (inactive); with MOLT-4, 13.2 µM (inactive); in the test with NCI-H460, 40.8 µM (inactive); in the test on OVCAR-3 it was 34.4 µM (inactive); in the test with RPMI-8226, 6.52 µM (inactive); in the test with RXF 393, 98.2 µM (inactive). The GI50 is 63.4 µM (inactive) in the test on SK-MEL-28; > 100 µM (inactive) in the test with SK-OV-3; 23.8 µM (inactive) in the test on SW-620; 33.3 µM (inactive) in the test with UACC-257; > 100 µM (inactive) with UACC-62; 89.5 µM (inactive) in the test on UO-31.

Regarding `Cc1ccc(S(=O)(=O)N2c3ccccc3[C@H]3CCc4c([nH]c5ccccc45)[C@H]32)cc1`, the GI50 in the test with COLO 205 is > 100 µM (inactive); in the test on HCC 2998, > 100 µM (inactive); in the test on HOP-62, 84.9 µM (inactive); with HT-29, > 100 µM (inactive); in the test on K562, 23.4 µM (inactive); in the test with KM12, 17.9 µM (inactive). For the same molecule, the GI50 was > 100 µM (inactive) in the test with M14; 66.1 µM (inactive) in the test with MOLT-4; > 100 µM (inactive) in the test on NCI-H460; > 100 µM (inactive) in the test on OVCAR-3; 29.2 µM (inactive) in the test with RPMI-8226; > 100 µM (inactive) in the test on RXF 393. Besides, the GI50 in the test on SK-MEL-28, in the test with SK-OV-3, in the test with SW-620, in the test with UACC-257, in the test with UACC-62 and in the test on UO-31 was > 100 µM (inactive) throughout.
